Reference: patent US20240228482A1, “COMPOUNDS, COMPOSITIONS AND METHODS OF TREATING CANCER” (HOTSPOT THERAPEUTICS, INC., priority 2021, published 2024)
Like-named read-outs stand apart in the source and are kept apart here.

Molecular target: T1, CBL-B (Homo sapiens, UniProt Q13191)
T1 construct: GST
Assay: CBL-B TR-FRET IC50 screening (E1/E2 ubiquitination, Biotin-Ubiquitin, Anti GST-Tb donor / Streptavidin-d2 acceptor)
Format: biochemical

[1] = CBL-B 10 nM final, 11-point titration from 100 uM, binned A-F, read-out: CBL-B TR-FRET activity IC50
[2] = second part of Table 2 (head 'Patent Cmpd No / Updated Activity'), same CBL-B TR-FRET IC50 bins A-F, read-out: Updated Activity

T1 sequence (Q13191 whole entry): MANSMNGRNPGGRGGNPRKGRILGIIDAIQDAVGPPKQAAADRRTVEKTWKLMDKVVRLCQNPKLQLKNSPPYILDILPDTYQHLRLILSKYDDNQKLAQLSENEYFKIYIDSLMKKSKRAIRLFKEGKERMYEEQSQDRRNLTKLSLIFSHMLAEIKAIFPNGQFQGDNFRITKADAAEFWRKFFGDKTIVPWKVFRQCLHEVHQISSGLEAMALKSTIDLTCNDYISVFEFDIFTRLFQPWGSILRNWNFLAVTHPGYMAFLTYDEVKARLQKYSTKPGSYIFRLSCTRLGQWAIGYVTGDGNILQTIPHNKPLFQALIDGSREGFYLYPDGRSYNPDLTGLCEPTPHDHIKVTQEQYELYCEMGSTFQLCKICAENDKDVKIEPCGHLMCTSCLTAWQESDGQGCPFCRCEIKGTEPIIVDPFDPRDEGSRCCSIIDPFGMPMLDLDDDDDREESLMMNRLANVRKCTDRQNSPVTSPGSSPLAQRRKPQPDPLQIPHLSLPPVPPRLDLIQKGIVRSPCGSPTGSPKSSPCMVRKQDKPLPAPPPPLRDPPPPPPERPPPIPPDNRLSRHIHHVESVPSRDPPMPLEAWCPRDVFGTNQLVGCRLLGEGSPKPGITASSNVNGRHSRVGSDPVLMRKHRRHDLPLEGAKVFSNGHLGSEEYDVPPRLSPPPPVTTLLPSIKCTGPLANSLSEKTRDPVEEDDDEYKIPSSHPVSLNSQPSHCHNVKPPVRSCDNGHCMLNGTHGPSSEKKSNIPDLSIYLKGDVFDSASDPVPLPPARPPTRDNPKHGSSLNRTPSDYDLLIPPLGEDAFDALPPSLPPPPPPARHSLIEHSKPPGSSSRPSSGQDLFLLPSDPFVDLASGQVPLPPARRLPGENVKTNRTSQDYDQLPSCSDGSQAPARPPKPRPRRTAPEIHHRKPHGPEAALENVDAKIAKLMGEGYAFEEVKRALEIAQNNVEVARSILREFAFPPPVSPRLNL

Row | SMILES | IC50 [1] [µM] | IC50 [2] [µM]
1 | COCCn1cc(C)c([C@H](c2cccc(-n3cc4c(C(F)(F)F)cc(CN5CCC[C@H](C)C5)cn4c3=O)c2)C2CCC2)n1 (single isomer, unassigned) [Compound 336] | > 10 | 
2 | C[C@H]1CCCN(Cc2cc(C(F)(F)F)c3cn(-c4cccc([C@@H](c5nncn5C)C5CC(F)(F)C5)c4)c(=O)n3c2)C1 (single isomer, unassigned) [Compound 342] | > 10 | 
3 | C[C@H]1CCCN(Cc2cc(C(F)(F)F)c3cn(-c4cccc([C@H](c5nncn5C)C5CC(F)(F)C5)c4)c(=O)n3c2)C1 (single isomer, unassigned) [Compound 343] | 0.1 to 0.3 | 
4 | C[C@H]1CCCN(Cc2cc(C(F)(F)F)c3cn(-c4cccc([C@@H](c5nncn5C)[C@H]5C[C@@H](CO)C5)c4)c(=O)n3c2)C1 (single isomer, unassigned) [Compound 353] | > 10 | 
5 | C[C@H]1CCCN(Cc2cc(C(F)(F)F)c3cn(-c4cccc([C@H](c5nncn5C)[C@H]5C[C@H](CO)C5)c4)c(=O)n3c2)C1 (single isomer, unassigned) [Compound 354] | 0.301 to 1 | 
6 | C[C@H]1CCCN(Cc2cc(C(F)(F)F)c3cn(-c4cccc([C@@H](c5nncn5C)[C@H]5C[C@H](CO)C5)c4)c(=O)n3c2)C1 (single isomer, unassigned) [Compound 355] | > 10 | 
7 | C[C@H]1CCCN(Cc2cc(C(F)(F)F)c3cn(-c4cccc([C@H](c5nncn5C)[C@H]5C[C@@H](CO)C5)c4)c(=O)n3c2)C1 (single isomer, unassigned) [Compound 356] | < 0.1 | 
8 | C[C@H]1CCCN(Cc2cc(C(F)(F)F)c3cn(-c4cccc([C@H](c5nncn5C)C5CCOCC5)c4)c(=O)n3c2)C1 (single isomer, unassigned) [Compound 358] | > 10 | 
9 | C[C@H]1CCCN(Cc2cc(C(F)(F)F)c3cn(-c4cccc([C@@H](c5nncn5C)C5CCOCC5)c4)c(=O)n3c2)C1 (single isomer, unassigned) [Compound 359] | > 10 | 
10 | Cc1cn(CCO)nc1[C@@H](c1cccc(-n2cc3c(C(F)(F)F)cc(CN4CCC[C@H](C)C4)cn3c2=O)c1)C1CCC1 (single isomer, unassigned) [Compound 360] | > 10 | 
11 | Cc1cn(CCO)nc1[C@H](c1cccc(-n2cc3c(C(F)(F)F)cc(CN4CCC[C@H](C)C4)cn3c2=O)c1)C1CCC1 (single isomer, unassigned) [Compound 361] | > 10 | 
12 | COC1(C[C@@H](c2cccc(-n3cc4c(C(F)(F)F)cc(CN5CCC[C@H](C)C5)cn4c3=O)c2)c2nncn2C)CC1 (single isomer, unassigned) [Compound 365] | 1 to 3 | 
13 | COC1(C[C@H](c2cccc(-n3cc4c(C(F)(F)F)cc(CN5CCC[C@H](C)C5)cn4c3=O)c2)c2nncn2C)CC1 (single isomer, unassigned) [Compound 366] | > 10 | 
14 | C[C@H]1CCCN(Cc2cc(C(F)(F)F)c3cn(-c4cccc([C@H](c5nncn5C)N5CCC5)c4)c(=O)n3c2)C1 (single isomer, unassigned) [Compound 367] | 3 to 10 | 
15 | C[C@H]1CCCN(Cc2cc(C(F)(F)F)c3cn(-c4cccc([C@@H](c5nncn5C)N5CCC5)c4)c(=O)n3c2)C1 (single isomer, unassigned) [Compound 368] | < 0.1 | 
16 | Cc1sc(C#N)nc1[C@@H](c1cccc(-n2cc3c(C(F)(F)F)cc(CN4CCC[C@H](C)C4)cn3c2=O)c1)C1CCC1 (single isomer, unassigned) [Compound 369] | > 10 | 
17 | C[C@H]1CCCN(Cc2cc(C(F)(F)F)c3cn(-c4cccc([C@H](c5nc(C#N)cs5)C5CCC5)c4)c(=O)n3c2)C1 (single isomer, unassigned) [Compound 370] | > 10 | 
18 | Cc1sc(C#N)nc1[C@H](c1cccc(-n2cc3c(C(F)(F)F)cc(CN4CCC[C@H](C)C4)cn3c2=O)c1)C1CCC1 (single isomer, unassigned) [Compound 371] | > 10 | 
19 | C[C@H]1CCCN(Cc2cc(C(F)(F)F)c3cn(-c4cccc([C@@H](c5nc(C#N)cs5)C5CCC5)c4)c(=O)n3c2)C1 (single isomer, unassigned) [Compound 372] | > 10 | 
20 | Cc1cnoc1[C@H](c1cccc(-n2cc3c(C(F)(F)F)cc(CN4CCC[C@H](C)C4)cn3c2=O)c1)C1CCC1 (single isomer, unassigned) [Compound 383] |  | > 10
21 | Cc1cnoc1[C@@H](c1cccc(-n2cc3c(C(F)(F)F)cc(CN4CCC[C@H](C)C4)cn3c2=O)c1)C1CCC1 (single isomer, unassigned) [Compound 384] |  | > 10
22 | COCc1nc([C@@H](c2cccc(-n3cc4c(C(F)(F)F)cc(CN5CCC[C@H](C)C5)cn4c3=O)c2)C2CCC2)c(C)s1 (single isomer, unassigned) [Compound 385] |  | > 10
23 | COCc1nc([C@H](c2cccc(-n3cc4c(C(F)(F)F)cc(CN5CCC[C@H](C)C5)cn4c3=O)c2)C2CCC2)c(C)s1 (single isomer, unassigned) [Compound 386] |  | > 10
24 | COC1CN([C@H](c2cccc(-n3cc4c(C(F)(F)F)cc(CN5CCC[C@H](C)C5)cn4c3=O)c2)c2nncn2C)C1 (single isomer, unassigned) [Compound 387] |  | > 10

Row | SMILES | IC50 [1] [µM] | IC50 [2] [µM]
25 | COC1CN([C@@H](c2cccc(-n3cc4c(C(F)(F)F)cc(CN5CCC[C@H](C)C5)cn4c3=O)c2)c2nncn2C)C1 (single isomer, unassigned) [Compound 388] |  | > 10
26 | COCc1csc([C@@H](c2cccc(-n3cc4c(C(F)(F)F)cc(CN5CCC[C@H](C)C5)cn4c3=O)c2)C2CCC2)n1 (single isomer, unassigned) [Compound 389] |  | > 10
27 | COCc1csc([C@H](c2cccc(-n3cc4c(C(F)(F)F)cc(CN5CCC[C@H](C)C5)cn4c3=O)c2)C2CCC2)n1 (single isomer, unassigned) [Compound 390] |  | > 10
28 | Cc1sc(CO)nc1[C@@H](c1cccc(-n2cc3c(C(F)(F)F)cc(CN4CCC[C@H](C)C4)cn3c2=O)c1)C1CCC1 (single isomer, unassigned) [Compound 391] |  | > 10
29 | Cc1sc(CO)nc1[C@H](c1cccc(-n2cc3c(C(F)(F)F)cc(CN4CCC[C@H](C)C4)cn3c2=O)c1)C1CCC1 (single isomer, unassigned) [Compound 392] |  | > 10
30 | COC(=O)N1CCC[C@H](c2cc(C(F)(F)F)c3cn(-c4cccc([C@H](c5nncn5C)C5CCC5)c4)c(=O)n3c2)C1 (single isomer, unassigned) [Compound 393] |  | < 0.1
31 | COC(=O)N1CCC[C@@H](c2cc(C(F)(F)F)c3cn(-c4cccc([C@H](c5nncn5C)C5CCC5)c4)c(=O)n3c2)C1 (single isomer, unassigned) [Compound 394] |  | 0.1 to 0.3
32 | CC(=O)N1CCC[C@H](c2cc(C(F)(F)F)c3cn(-c4cccc([C@H](c5nncn5C)C5CCC5)c4)c(=O)n3c2)C1 (single isomer, unassigned) [Compound 396] |  | 0.1 to 0.3
33 | CC(=O)N1CCC[C@@H](c2cc(C(F)(F)F)c3cn(-c4cccc([C@H](c5nncn5C)C5CCC5)c4)c(=O)n3c2)C1 (single isomer, unassigned) [Compound 397] |  | 0.1 to 0.3
34 | COCC[C@H](c1cccc(-n2cc3c(C(F)(F)F)cc(CN4CCC[C@H](C)C4)cn3c2=O)c1)c1nncn1C (single isomer, unassigned) [Compound 399] |  | < 0.1
35 | COCC[C@@H](c1cccc(-n2cc3c(C(F)(F)F)cc(CN4CCC[C@H](C)C4)cn3c2=O)c1)c1nncn1C (single isomer, unassigned) [Compound 400] |  | > 10
36 | C[C@H]1CCCN(Cc2cc(C(F)(F)F)c3cn(-c4cccc([C@@H](CC5(C#N)CC5)c5nncn5C)c4)c(=O)n3c2)C1 (single isomer, unassigned) [Compound 405] |  | > 10
37 | C[C@H]1CCCN(Cc2cc(C(F)(F)F)c3cn(-c4cccc([C@H](c5nncn5C)N5CC(O)C5)c4)c(=O)n3c2)C1 (single isomer, unassigned) [Compound 406] |  | 0.1 to 0.3
38 | C[C@H]1CCCN(Cc2cc(C(F)(F)F)c3cn(-c4cccc([C@@H](c5nncn5C)N5CC(O)C5)c4)c(=O)n3c2)C1 (single isomer, unassigned) [Compound 407] |  | > 10
39 | COC(=O)N1CC[C@H](c2cc(C(F)(F)F)c3cn(-c4cccc([C@H](c5nncn5C)C5CCC5)c4)c(=O)n3c2)C1 (single isomer, unassigned) [Compound 408] |  | < 0.1
40 | COC(=O)N1CC[C@@H](c2cc(C(F)(F)F)c3cn(-c4cccc([C@H](c5nncn5C)C5CCC5)c4)c(=O)n3c2)C1 (single isomer, unassigned) [Compound 409] |  | < 0.1
41 | COCC(COC)[C@H](c1cccc(-n2cc3c(C(F)(F)F)cc(CN4CCC[C@H](C)C4)cn3c2=O)c1)c1nncn1C (single isomer, unassigned) [Compound 410] |  | > 10
42 | COCC(COC)[C@@H](c1cccc(-n2cc3c(C(F)(F)F)cc(CN4CCC[C@H](C)C4)cn3c2=O)c1)c1nncn1C (single isomer, unassigned) [Compound 411] |  | > 10
43 | C[C@H]1CCCN(Cc2cc(C(F)(F)F)c3cn(-c4cccc([C@]5(c6nncn6C)C[C@@](C)(O)C5)c4)c(=O)n3c2)C1 (single isomer, unassigned) [Compound 417] |  | < 0.1
44 | C[C@H]1CCCN(Cc2cc(C(F)(F)F)c3cn(-c4cccc([C@]5(c6nncn6C)C[C@](C)(O)C5)c4)c(=O)n3c2)C1 (single isomer, unassigned) [Compound 418] |  | 3 to 10
45 | Cc1cn(CC#N)nc1[C@@H](c1cccc(-n2cc3c(C(F)(F)F)cc(CN4CCC[C@H](C)C4)cn3c2=O)c1)C1CCC1 (single isomer, unassigned) [Compound 419] |  | > 10
46 | Cc1cn(CC#N)nc1[C@H](c1cccc(-n2cc3c(C(F)(F)F)cc(CN4CCC[C@H](C)C4)cn3c2=O)c1)C1CCC1 (single isomer, unassigned) [Compound 420] |  | > 10
47 | CC(=O)N1CC[C@H](c2cc(C(F)(F)F)c3cn(-c4cccc([C@H](c5nncn5C)C5CCC5)c4)c(=O)n3c2)C1 (single isomer, unassigned) [Compound 421] |  | < 0.1
